Laboratory results as given in ChEMBL document CHEMBL1201862, “PubChem BioAssay data set” (2004).
Activity calls are given as the source filed them.

Key:
cells [1] = format: functional, cell-based
cells [2] = format: functional, cell-based; remark: listed apart in the source
[3] = target: T1, High affinity choline transporter 1 (Homo sapiens, UniProt Q9GZV3); assay: CHT inhibitors, dose response, cell-based, 5-point CRC, membrane potential dye (AID 504840); format: functional
T1 sequence (Q9GZV3 whole entry): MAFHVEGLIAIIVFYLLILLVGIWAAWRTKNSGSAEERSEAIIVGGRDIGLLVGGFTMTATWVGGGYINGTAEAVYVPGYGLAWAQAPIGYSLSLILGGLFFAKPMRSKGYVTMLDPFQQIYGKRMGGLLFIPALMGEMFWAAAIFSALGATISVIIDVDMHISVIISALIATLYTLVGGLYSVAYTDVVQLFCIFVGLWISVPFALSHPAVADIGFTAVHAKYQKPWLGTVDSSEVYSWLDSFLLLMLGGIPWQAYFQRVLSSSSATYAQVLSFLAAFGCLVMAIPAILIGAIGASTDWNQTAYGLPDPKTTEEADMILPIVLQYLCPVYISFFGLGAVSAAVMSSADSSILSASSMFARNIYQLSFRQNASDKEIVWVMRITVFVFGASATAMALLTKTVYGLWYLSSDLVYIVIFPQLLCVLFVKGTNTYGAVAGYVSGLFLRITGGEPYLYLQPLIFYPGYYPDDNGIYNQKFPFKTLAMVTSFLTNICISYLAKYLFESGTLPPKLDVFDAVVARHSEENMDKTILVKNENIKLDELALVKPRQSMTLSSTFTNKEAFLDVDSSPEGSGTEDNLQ

Cytochrome P450 2C9 = Cytochrome P450 2C9 (Homo sapiens, UniProt P11712)
[4] = microbe, parasite or virus in culture; format: functional; settings: Mycobacterium tuberculosis
[5] = target: T2, Replicative DNA helicase DnaB (Mycobacterium tuberculosis, UniProt P9WMR3); assay: DnaB intein splicing inhibitors, dose response, biochemical, cell-free fluorescence (AID 449749); format: functional
T2 sequence (P9WMR3 whole entry): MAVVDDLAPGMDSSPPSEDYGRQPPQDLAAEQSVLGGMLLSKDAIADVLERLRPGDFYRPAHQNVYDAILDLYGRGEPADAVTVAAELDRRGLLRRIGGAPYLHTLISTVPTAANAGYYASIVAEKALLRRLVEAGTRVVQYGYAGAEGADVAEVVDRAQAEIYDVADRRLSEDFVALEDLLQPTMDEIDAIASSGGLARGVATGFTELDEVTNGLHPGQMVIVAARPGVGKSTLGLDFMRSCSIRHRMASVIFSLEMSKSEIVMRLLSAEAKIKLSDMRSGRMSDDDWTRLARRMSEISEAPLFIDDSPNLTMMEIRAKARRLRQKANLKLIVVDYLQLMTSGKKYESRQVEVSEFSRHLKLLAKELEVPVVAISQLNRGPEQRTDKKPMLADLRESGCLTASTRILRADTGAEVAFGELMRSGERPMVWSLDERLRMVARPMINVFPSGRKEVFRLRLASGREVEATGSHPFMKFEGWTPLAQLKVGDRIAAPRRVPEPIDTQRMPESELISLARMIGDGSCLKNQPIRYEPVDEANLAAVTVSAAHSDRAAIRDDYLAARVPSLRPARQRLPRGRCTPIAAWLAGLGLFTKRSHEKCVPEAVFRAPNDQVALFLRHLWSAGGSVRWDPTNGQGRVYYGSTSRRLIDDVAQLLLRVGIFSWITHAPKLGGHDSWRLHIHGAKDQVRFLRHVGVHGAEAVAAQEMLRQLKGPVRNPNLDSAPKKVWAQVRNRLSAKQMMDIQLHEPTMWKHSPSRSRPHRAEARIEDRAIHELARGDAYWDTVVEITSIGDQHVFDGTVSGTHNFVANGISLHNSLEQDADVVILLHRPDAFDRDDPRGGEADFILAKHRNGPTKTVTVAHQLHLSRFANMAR

Protein RecA = target: T3, Protein RecA (Mycobacterium tuberculosis, UniProt P9WHJ3); assay: Fluorescence Cell-Free Homogeneous Dose Retest to Identify Inhibitors of RecA-Intein Splicing Activity. [Related pubchem assays (depositor defined):AID2097, AID2223, AID489010, AID492950]; format: functional
T3 sequence (P9WHJ3 whole entry): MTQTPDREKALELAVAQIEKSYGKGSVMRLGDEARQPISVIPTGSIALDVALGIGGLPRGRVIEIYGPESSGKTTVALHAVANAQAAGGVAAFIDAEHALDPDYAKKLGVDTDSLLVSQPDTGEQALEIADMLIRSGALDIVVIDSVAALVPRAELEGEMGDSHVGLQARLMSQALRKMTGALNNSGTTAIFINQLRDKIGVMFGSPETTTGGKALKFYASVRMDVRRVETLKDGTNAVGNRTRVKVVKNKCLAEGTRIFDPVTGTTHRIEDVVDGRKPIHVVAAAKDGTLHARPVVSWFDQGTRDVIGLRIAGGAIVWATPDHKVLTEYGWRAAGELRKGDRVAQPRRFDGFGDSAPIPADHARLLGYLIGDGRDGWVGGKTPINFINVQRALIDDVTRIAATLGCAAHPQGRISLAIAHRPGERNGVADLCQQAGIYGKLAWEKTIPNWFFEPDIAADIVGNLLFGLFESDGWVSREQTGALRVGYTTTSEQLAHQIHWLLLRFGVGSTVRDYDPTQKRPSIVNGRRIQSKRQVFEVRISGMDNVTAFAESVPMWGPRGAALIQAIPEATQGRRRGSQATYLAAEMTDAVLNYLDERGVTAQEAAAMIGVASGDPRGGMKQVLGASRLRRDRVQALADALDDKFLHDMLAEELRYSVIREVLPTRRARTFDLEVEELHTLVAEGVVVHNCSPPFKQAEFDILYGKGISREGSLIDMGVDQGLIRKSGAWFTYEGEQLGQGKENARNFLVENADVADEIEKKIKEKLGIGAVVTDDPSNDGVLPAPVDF

[6] = target: T4, Polyadenylate-binding protein 1 (Homo sapiens, UniProt P11940); assay: PABP1 MLLE–PAM2 interaction inhibitors, dose response, miRNA deadenylation inhibitor project, biochemical, fluorescence polarization, Cy5-PAM2 peptide, secondary (AID 602260); format: functional; settings: read-out: IC50_Mean
[7] = target: T4, Polyadenylate-binding protein 1; assay: PABP1 MLLE–PAM2 binding inhibitor potency, dose response, biochemical, fluorescence polarization, FITC-PAM2 peptide (AID 602259); format: functional; settings: read-out: IC50_Mean
[8] = inhibitors of intracellular T. cruzi replication, confirmation, NIH3T3 host cells, beta-gal luminescence (AID 2044); format: functional, cell-based;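 note: intracellular parasites grown in NIH/3T3 mouse fibroblasts as host cells; luminescent beta-galactosidase reporter signal from transgenic T. cruzi replicating inside host cells; inhibitors lower the luminescence signal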
[9] = growth suppression of PTEN-null colon cells, dose response, cell-based, HCT116 PTEN knockout (AID 1047); format: functional;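 note: HCT116 colon tumor cells with PTEN knocked out; cells exposed to compound for 60 hours before readout; potency for loss of cell viability measured by luminescence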
[10] = target: T5, Ubiquitin-conjugating enzyme E2 N (Homo sapiens, UniProt P61088); format: functional;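 note: Dose-response confirmation in a TR-FRET assay detecting UBC13-driven polyubiquitin chain formation, inhibition measured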
T5 sequence (P61088 whole entry): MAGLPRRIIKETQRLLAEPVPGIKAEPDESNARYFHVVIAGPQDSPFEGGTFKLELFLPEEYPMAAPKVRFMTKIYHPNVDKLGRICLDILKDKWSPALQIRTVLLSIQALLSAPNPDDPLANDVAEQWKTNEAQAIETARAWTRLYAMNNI

[11] = cytotoxicity toward NIH3T3 fibroblasts, dose response, counter-screen, cell-based, ATP luminescence, mouse fibroblasts (AID 2010); format: functional;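 note: cells exposed to compound for about 90 hours before reading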
[12] = Luminescence Cell-Based Dose Retest to Confirm Inhibitors of Cancer Stem Cells. [Related pubchem assays (depositor defined):AID2717, AID2721]; format: functional; settings: Homo sapiens
[13] = growth suppression of beta-catenin-knockout colon cells, dose response, cell-based, HCT116, human colon tumor (AID 1045); format: functional;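 note: HCT116 colon tumor cells with beta catenin knocked out; cells exposed to compound for 60 hours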
[14] = target: Voltage-dependent T-type calcium channel subunit alpha-1H (Homo sapiens, UniProt O95180); format: functional;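 note: channel activity triggered by adding a high calcium stimulation buffer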
Cytochrome P450 3A4 = Cytochrome P450 3A4 (Homo sapiens, UniProt P08684);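 note: CYP3A4 tested as one member of a cytochrome P450 panel screen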
[15] = inhibitors of clade B AD8 Env fusion, dose response, cell-based, cherry-pick (AID 652062); format: functional;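 note: luciferase signal from cell-cell fusion driven by HIV-1 clade B AD8 Env; potency is for inhibitors of fusion seen as a drop in luminescence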
[16] = ZM109 Env clade C HIV-1 fusion inhibitors, dose response, HeLa effector, CEM target cells, luciferase, cherry-pick (AID 652058); format: functional, cell-based
[17] = inhibitors of HIV Env-driven cell fusion, dose response, cherry-pick (AID 652057); format: functional, cell-based

Chain of Voltage-dependent T-type calcium channel subunit alpha-1H (O95180 whole entry): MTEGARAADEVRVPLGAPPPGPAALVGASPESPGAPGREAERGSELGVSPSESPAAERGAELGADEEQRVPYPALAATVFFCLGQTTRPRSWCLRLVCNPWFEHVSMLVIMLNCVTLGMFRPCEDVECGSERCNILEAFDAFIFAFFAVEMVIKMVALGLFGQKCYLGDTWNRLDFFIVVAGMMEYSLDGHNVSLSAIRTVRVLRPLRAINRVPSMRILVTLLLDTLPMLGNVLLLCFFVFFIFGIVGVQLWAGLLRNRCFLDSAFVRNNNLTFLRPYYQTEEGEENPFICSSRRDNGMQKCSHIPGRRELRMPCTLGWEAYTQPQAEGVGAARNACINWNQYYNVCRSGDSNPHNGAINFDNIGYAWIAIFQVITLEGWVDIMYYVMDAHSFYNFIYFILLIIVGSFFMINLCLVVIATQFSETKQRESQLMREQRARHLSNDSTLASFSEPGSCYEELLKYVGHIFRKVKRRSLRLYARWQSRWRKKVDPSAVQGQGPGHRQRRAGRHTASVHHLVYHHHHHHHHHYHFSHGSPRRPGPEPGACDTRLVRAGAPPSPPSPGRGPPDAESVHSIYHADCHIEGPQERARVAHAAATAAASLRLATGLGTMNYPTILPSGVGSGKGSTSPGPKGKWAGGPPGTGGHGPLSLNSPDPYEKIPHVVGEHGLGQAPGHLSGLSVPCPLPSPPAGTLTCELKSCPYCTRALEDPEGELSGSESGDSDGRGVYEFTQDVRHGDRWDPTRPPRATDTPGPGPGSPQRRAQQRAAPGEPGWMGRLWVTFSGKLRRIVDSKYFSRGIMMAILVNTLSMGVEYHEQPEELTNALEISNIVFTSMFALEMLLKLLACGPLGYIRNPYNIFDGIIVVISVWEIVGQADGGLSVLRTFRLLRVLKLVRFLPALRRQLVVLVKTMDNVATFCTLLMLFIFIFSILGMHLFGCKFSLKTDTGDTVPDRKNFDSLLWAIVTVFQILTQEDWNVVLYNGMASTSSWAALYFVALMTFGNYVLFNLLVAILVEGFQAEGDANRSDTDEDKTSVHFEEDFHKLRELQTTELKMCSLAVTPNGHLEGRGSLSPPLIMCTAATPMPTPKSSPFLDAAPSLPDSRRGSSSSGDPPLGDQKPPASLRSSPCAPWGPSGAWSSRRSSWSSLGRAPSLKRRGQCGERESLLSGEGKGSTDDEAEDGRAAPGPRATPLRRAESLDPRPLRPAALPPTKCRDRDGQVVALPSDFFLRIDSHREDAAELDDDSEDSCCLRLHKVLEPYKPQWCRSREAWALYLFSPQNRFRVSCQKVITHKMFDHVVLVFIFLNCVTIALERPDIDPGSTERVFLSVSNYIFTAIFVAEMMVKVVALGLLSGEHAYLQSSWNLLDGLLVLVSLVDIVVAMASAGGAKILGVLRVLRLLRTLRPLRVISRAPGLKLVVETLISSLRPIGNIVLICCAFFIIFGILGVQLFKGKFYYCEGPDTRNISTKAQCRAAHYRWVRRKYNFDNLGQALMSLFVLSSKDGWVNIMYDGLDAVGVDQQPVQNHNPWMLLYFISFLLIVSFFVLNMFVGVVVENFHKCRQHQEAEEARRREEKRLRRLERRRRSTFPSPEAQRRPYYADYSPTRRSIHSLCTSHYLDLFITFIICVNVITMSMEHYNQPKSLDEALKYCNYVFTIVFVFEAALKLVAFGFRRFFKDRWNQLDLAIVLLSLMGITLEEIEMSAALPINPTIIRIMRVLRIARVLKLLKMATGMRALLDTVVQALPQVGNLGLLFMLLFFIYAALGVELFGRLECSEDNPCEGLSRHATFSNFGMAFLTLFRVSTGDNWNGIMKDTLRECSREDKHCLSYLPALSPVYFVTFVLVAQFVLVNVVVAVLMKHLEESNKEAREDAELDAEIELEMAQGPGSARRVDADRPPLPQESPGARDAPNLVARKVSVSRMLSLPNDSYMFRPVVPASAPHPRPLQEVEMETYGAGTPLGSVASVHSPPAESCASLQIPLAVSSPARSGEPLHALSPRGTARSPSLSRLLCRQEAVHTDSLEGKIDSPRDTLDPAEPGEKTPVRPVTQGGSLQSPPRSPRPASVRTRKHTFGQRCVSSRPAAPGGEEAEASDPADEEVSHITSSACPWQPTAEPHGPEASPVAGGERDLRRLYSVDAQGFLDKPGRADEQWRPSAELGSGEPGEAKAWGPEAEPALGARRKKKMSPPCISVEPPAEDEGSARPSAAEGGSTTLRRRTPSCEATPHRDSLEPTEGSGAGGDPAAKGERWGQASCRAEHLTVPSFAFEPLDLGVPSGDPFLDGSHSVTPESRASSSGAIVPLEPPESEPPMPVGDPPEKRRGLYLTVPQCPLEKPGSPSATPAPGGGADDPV
Chain of Cytochrome P450 2C9 (P11712 whole entry): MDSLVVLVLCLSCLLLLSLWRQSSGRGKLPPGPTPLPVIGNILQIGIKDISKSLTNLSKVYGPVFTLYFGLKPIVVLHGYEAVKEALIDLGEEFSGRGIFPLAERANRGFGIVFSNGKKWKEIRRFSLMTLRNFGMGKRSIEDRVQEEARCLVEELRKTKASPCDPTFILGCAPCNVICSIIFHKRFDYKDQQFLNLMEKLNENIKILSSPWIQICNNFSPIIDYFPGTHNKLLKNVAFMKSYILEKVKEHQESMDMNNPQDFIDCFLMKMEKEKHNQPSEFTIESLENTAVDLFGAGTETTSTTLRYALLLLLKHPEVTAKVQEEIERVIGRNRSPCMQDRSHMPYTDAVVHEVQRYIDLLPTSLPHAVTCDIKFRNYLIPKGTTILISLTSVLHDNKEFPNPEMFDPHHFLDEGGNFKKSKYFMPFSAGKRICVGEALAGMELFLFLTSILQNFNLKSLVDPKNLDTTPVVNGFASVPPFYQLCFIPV
T4 sequence (P11940 whole entry): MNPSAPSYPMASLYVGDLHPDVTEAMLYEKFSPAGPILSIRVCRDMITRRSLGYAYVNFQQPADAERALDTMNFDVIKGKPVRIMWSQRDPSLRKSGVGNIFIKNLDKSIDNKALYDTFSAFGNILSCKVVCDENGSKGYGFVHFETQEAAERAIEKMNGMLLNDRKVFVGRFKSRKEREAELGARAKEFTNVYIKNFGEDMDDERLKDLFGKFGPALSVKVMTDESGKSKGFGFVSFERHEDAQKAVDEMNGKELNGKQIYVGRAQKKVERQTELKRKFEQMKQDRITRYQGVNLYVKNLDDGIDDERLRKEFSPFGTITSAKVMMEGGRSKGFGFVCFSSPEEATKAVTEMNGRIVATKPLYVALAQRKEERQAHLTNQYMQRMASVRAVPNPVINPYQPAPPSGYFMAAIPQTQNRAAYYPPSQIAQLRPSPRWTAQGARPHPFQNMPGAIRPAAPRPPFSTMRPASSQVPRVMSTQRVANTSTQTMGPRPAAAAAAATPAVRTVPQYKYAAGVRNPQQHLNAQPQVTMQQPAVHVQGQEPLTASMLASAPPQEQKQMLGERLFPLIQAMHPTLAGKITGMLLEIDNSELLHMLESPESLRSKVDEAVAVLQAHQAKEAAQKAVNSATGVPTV
Chain of Cytochrome P450 3A4 (P08684 whole entry, the tested form may be a part): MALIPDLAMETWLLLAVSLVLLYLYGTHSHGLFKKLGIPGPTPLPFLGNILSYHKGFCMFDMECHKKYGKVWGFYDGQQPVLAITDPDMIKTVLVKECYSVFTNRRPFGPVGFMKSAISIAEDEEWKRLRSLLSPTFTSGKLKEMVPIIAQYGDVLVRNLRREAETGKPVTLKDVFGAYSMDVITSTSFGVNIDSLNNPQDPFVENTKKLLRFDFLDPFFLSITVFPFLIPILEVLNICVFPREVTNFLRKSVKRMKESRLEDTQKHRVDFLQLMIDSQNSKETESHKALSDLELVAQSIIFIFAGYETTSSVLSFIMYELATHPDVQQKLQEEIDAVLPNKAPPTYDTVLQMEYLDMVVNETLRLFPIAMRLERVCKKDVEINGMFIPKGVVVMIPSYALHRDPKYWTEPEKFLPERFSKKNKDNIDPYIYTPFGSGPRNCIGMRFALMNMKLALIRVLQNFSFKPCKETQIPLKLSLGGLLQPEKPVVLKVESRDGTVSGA

COc1cc(C(=O)N2CCN(C(=O)Cc3ccccc3)CC2)cc(OC)c1OC
EC50 (cells [1]): > 350 µM (not active) | EC50 (cells [2]): > 350 µM (not active)

CC1CCN(S(=O)(=O)c2ccc3c(c2)c(=O)c(C(=O)NC2CCCC2)cn3C)CC1
IC50 [3]: 12 µM (active)

COc1ccc(N2C(=O)[C@@H]3C(c4cccnc4)=NO[C@@H]3C2=O)cc1
EC50 (cells [1]): > 350 µM (not active) | EC50 (cells [2]): > 350 µM (not active)

Cc1ccc(S(=O)(=O)N[C@H]2COC(=O)C/C=C\[C@@H](C)COC(=O)C/C=C\[C@@H]2C)cc1
AC50 (Cytochrome P450 2C9): inconclusive

CCCCC(O)(CCCC)C(=O)NN(C(=O)CCl)c1ccccc1
CC50 [4]: 12.1 µM (active) | AC50 [5]: 15 µM (active) | EC50 (Protein RecA): 2.45 µM (active)

CN1C(=O)SC(Nc2ccccc2C(=O)O)C1=O (stereo unspecified)
IC50 [6]: > 66 µM (inactive) | IC50 [7]: > 66 µM (inactive)

COc1ccc(Sc2nnc(Cc3ccccc3)c3ccccc23)cc1
IC50 [6]: > 66 µM (inactive) | IC50 [7]: > 66 µM (inactive)

COc1cc(CNCCc2c[nH]c3ccccc23)ccc1OCc1ccccc1F
EC50 [8]: 0.196 µM (active) | EC50 [9]: 15.3 µM (active) | IC50 [10]: > 20 µM (inactive) | EC50 [11]: > 60 µM (inconclusive) | AC50 [12]: 4.72 µM (active) | EC50 [13]: 13.6 µM (active)

CCCCc1cc(-c2nnc(S)o2)c2ccccc2n1
IC50 [3]: 13.2 µM (active)

CCN(CC)c1ccc(/C=C2/C(=O)NC(=O)N(CC3CCCO3)C2=O)cc1 (stereo unspecified)
AC50 (Cytochrome P450 2C9): inconclusive

CCC(c1nnnn1C(C)(C)C)N1CCN(c2cc(Cl)ccc2C)CC1 (stereo unspecified)
EC50 [14]: 5.94 µM (active)

CCc1cnccc1CCC(=O)Nc1ccccc1C
EC50 (cells [1]): > 350 µM (not active) | EC50 (cells [2]): 52 µM (active)

CCc1cc2c(NCc3ccco3)ncnc2s1
IC50 [3]: 10 µM (active) | AC50 (Cytochrome P450 3A4): 25.1 µM (inconclusive) | AC50 [15]: 32.3 µM (active)

Cc1ccc(-c2nnc(CSc3nnc(COc4ccccc4)n3-c3ccccc3)o2)cc1
EC50 [14]: 3.32 µM (active)

CC1CCCCN1CCNC(=O)c1ccc2c(=O)n(Cc3ccc(Cl)cc3)c(=S)[nH]c2c1 (stereo unspecified)
IC50 [10]: > 20 µM (inactive)

COc1cccc2sc3ccc(C#CC4(N)CCCCC4)cc3c(=O)c12
CC50 [4]: 20.1 µM (active)

COc1cc2ccccc2cc1C(=O)Nc1ccc(Cc2ccncc2)cc1
CC50 [4]: 22 µM (active) | EC50 [8]: 1.99 µM (active) | EC50 [11]: 8.08 µM (active)

CN1CCN(C(=S)NC(=O)c2ccc(S(=O)(=O)N3CCOCC3)cc2)CC1
IC50 [6]: > 66 µM (inactive) | IC50 [7]: > 66 µM (inactive)

COc1ccccc1N1CCN(CC(=O)c2c(C)[nH]c3cc(C)ccc23)CC1
EC50 [14]: 5.63 µM (active) | AC50 [5]: 5.47 µM (active) | EC50 (Protein RecA): 94.2 µM (active)

Cc1ccc(C(c2nnnn2C(C)(C)C)N(Cc2ccco2)Cc2cccs2)cc1 (stereo unspecified)
EC50 [8]: 2.26 µM (active) | EC50 [14]: 6.33 µM (active) | EC50 [11]: > 30 µM (not active)

Cc1snc(SCC(=O)NN=C(N)COc2cccc(C(F)(F)F)c2)c1C#N
EC50 (cells [1]): > 350 µM (not active) | EC50 (cells [2]): > 350 µM (not active)

COC(=O)c1c(NC(=O)c2nc3ccccc3s2)sc2c1CCN(C(C)=O)C2
IC50 [10]: > 20 µM (inactive)

COc1ccccc1N1CCN(C(c2ccccc2Cl)c2nnnn2C(C)(C)C)CC1 (stereo unspecified)
EC50 [14]: 11.7 µM (active)

CCCCn1c(NCc2ccc3c(c2)OCO3)nc2ccccc21
CC50 [4]: 39.6 µM (active)

COc1ccc(C(CNC(=O)c2cc3c(s2)CCC(C)C3)N2CCCC2)cc1 (stereo unspecified)
IC50 [10]: > 20 µM (inactive)

O=C(Nc1cccc(S(=O)(=O)NC2=NCCC2)c1)c1cc(Cl)ccc1[N+](=O)[O-]
IC50 [3]: 11.8 µM (active)

CC(C)[C@@H]1CN=C(N)N1C[C@@H]1CCCN1C[C@H](C)N1C[C@@H](Cc2ccccc2)N(CCc2ccc(Cl)c(Cl)c2)C1=N
IC50 [10]: > 20 µM (inactive)

C[C@@H]1CN([C@@H](C)CO)C(=O)c2cccc(NS(=O)(=O)c3ccccc3)c2O[C@@H]1CN(C)Cc1ccc(Cl)c(Cl)c1
AC50 [16]: 4.27 µM (active) | AC50 [17]: 2.93 µM (active) | AC50 [15]: 3.86 µM (active)

O=C(C[C@H]1C[C@@H]2c3cc(NS(=O)(=O)c4ccc(F)cc4)ccc3O[C@@H]2[C@H](CO)O1)NCc1ccc(Cl)cc1
AC50 [16]: 5.21 µM (active) | AC50 [17]: 1.72 µM (active) | AC50 [15]: 4.14 µM (active)

Nc1ccc(S(=O)(=O)Nc2nccs2)cc1 [SULFATHIAZOLE]
AC50 (Cytochrome P450 2C9): inconclusive
